Data taken from US12643910B2, “Substituted pyrazolo[3,4-b]pyridines as ectonucleotide pyrophosphatase/phosphodiesterase 1 (ENPP1) modulators” (SANFORD BURNHAM PREBYS MEDICAL DISCOVERY INSTITUTE, priority 2019, dated 2026).

Experiments:
human ENPP1 = molecular target: T1, human ENPP1 (Homo sapiens, UniProt P22413); assay: ENPP1 assay with ATP substrate (Transcreener AMP2/GMP2 TR-FRET); format: biochemical; details: 1 hour at room temperature
T1 construct: made in house
T1 sequence (P22413 1-925): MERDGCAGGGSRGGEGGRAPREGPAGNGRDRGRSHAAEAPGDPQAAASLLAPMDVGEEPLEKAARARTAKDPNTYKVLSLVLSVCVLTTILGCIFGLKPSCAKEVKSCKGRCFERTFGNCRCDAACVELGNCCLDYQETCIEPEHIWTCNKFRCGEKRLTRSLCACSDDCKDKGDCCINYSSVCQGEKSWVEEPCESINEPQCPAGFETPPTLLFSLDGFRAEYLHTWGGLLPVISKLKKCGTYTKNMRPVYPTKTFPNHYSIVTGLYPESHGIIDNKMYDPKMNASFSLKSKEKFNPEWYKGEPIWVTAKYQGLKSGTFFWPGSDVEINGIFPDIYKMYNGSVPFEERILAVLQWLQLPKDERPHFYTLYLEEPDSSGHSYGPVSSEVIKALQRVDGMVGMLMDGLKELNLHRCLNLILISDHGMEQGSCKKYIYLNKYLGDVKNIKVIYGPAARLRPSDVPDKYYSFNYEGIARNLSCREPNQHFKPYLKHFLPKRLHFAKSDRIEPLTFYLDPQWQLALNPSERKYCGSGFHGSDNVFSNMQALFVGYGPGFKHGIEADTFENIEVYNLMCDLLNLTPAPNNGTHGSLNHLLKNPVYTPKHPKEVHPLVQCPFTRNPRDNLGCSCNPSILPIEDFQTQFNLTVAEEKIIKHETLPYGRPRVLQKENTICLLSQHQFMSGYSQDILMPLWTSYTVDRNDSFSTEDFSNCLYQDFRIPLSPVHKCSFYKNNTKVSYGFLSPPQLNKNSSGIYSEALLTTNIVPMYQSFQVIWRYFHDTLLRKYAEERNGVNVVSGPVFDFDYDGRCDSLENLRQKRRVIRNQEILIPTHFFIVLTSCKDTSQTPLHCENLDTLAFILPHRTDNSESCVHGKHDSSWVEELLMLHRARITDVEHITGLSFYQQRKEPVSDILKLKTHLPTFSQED
Procedure, shortened: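 Reaction ran 1 h at room temperature in pH 7.5 Tris with MgCl2, TCEP, Tween 20 and 1% DMSO. ATP was added as a 300 nM stock and enzyme as an 8.5 μM stock. After EDTA stop, AMP was read by TR-FRET tracer displacement. Percent inhibition used enzyme/no-enzyme controls; IC50 was fitted with a variable slope.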

ENPP3 = molecular target: T2, ENPP3 (Homo sapiens, UniProt O14638); assay: ENPP3 Km ATP assay; format: biochemical; details: ATP at Km
T2 sequence (O14638 1-875): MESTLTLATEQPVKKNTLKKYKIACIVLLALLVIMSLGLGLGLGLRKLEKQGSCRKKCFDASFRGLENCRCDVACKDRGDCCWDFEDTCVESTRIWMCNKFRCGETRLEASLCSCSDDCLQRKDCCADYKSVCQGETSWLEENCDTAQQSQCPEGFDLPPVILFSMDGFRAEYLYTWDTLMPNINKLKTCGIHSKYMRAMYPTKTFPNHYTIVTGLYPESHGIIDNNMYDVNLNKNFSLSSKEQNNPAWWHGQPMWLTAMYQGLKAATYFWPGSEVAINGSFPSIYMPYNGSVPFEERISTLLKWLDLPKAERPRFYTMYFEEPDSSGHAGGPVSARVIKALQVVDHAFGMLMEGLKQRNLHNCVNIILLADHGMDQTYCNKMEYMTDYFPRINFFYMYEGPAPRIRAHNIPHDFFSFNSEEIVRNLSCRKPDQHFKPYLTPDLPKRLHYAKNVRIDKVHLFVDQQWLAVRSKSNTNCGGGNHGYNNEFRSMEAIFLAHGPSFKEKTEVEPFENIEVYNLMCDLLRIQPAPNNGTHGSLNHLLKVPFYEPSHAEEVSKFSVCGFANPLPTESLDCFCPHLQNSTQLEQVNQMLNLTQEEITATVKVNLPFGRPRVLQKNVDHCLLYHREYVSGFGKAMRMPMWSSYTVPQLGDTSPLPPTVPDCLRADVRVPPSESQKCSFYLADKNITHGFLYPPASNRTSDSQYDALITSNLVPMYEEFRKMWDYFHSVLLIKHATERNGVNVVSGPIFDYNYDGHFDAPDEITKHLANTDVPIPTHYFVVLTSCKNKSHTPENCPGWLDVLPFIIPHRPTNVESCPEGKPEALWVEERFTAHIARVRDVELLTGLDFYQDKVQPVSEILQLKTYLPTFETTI

SMILES	IC50 (human ENPP1) [µM]	IC50 (ENPP3) [µM]
CCCCNc1cc(NCc2ccc(S(N)(=O)=O)cc2)c2cnn(C)c2n1 [Example 2.80, 4-(((6-(Butylamino)-1-methyl-1H-pyrazolo[3,4-b]pyridin-4-yl)amino)methyl)-benzenesulfonamide]	1 to 20	1 to 20
COCCN(C)c1nc(NCc2ccc(S(N)(=O)=O)cc2)c2c(-c3ccccc3)csc2n1 [Example 1.55, 4-((2-(N-Methyl-N-(2-methoxyethyl)amino)-5-phenylthieno[2,3-d]pyrimidin-4-yl)aminomethyl)benzenesulfonamide]	< 0.1	0.1 to 1
COc1cc(CNc2ccnc3c2cnn3C)ccc1S(N)(=O)=O [Example 2.65, 2-Methoxy-4-(((1-methyl-1H-pyrazolo[3,4-b]pyridin-4-yl)amino)methyl)-benzenesulfonamide]	1 to 20	> 20
NS(=O)(=O)c1ccc(CNc2nc(-c3ccccn3)nc3scc(-c4ccccn4)c23)cc1 [Example 1.23, 4-(((2,5-Di(pyridin-2-yl)thieno[2,3-d]pyrimidin-4-yl)amino)methyl)benzenesulfonamide]	0.1 to 1	1 to 20
NS(=O)(=O)c1ccc(CNc2nc(-c3ccccn3)nc3scc(-c4ccncc4)c23)cc1 [Example 1.20, 4-(((2-(Pyridin-2-yl)-5-(pyridin-4-yl)thieno[2,3-d]pyrimidin-4-yl)amino)methyl)-benzenesulfonamide]	1 to 20	> 20
Cn1nc(-c2ccccn2)c2c(NCc3ccc(S(N)(=O)=O)cc3)nc(Cl)nc21 [Example 2.124, 4-((6-Chloro-1-methyl-3-(2-pyridyl)-1H-pyrazolo[3,4-d]pyrimidin-4-yl)aminomethyl)benzenesulfonamide]	0.1 to 1	0.1 to 1
c1ccc(-c2csc3nc(-c4ccccn4)nc(NCc4cccs4)c23)cc1 [Example 1.33, (5-Phenyl-2-pyridin-2-yl-thieno[2,3-d]pyrimidin-4-yl)-thiophen-2-ylmethyl-amine]	0.1 to 1	1 to 20
Cn1ncc2c(NCc3ccc(S(N)(=O)=O)s3)nc(-c3ccccn3)nc21 [Example 2.24, 5-(((1-Methyl-6-(pyridin-2-yl)-1H-pyrazolo[3,4-d]pyrimidin-4-yl)amino)methyl)thiophene-2-sulfonamide]	0.1 to 1	0.1 to 1
NS(=O)(=O)c1ccc(CNc2nc(-c3ccccn3)nc3scc(-c4ccccc4)c23)cc1C(F)(F)F [Example 1.14, 4-(((5-Phenyl-2-(pyridin-2-yl)thieno[2,3-d]pyrimidin-4-yl)amino)methyl)-2-(trifluoromethyl)benzenesulfonamide]	< 0.1	0.1 to 1
c1ccc(-c2csc3nc(-c4ccccn4)nc(NCc4ccncc4)c23)cc1 [Example 1, 5-Phenyl-2-(pyridin-2-yl)-N-(pyridin-4-ylmethyl)thieno[2,3-d]pyrimidin-4-amine]	0.1 to 1	> 20
NS(=O)(=O)c1ccc(CNc2nc(-c3ccccn3)nc3scc(-c4ccccc4)c23)c(Cl)c1 [Example 1.21, 3-Chloro-4-(((5-phenyl-2-(pyridin-2-yl)thieno[2,3-d]pyrimidin-4-yl)amino)methyl)-benzenesulfonamide]	< 0.1	0.1 to 1
NS(=O)(=O)c1ccc(COc2ncnc3scc(-c4ccccc4)c23)cc1 [Example 1.70, 4-((5-Phenylthieno[2,3-d]pyrimidin-4-yl)oxymethyl)benzenesulfonamide]	0.1 to 1	1 to 20
O=C(CCc1ccc(F)cc1)NC1CCN(c2ncnc3c(-c4ccccc4)csc23)CC1 [Example 3.57, 3-(4-Fluorophenyl)-N-(1-(7-phenylthieno[3,2-d]pyrimidin-4-yl)piperidin-4-yl)propanamide]	> 20	> 20
Cc1nc(NCc2ccc(S(N)(=O)=O)s2)c2c(-c3ccccc3)csc2n1 [Example 1.45, 5-(((2-Methyl-5-phenylthieno[2,3-d]pyrimidin-4-yl)amino)methyl)thiophene-2-sulfonamide]	> 20	> 20
COc1nc(NCc2ccc(S(N)(=O)=O)cc2)c2c(Br)nn(C)c2n1 [Example 2.96, 4-((3-Bromo-6-methoxy-1-methyl-1H-pyrazolo[3,4-d]pyrimidin-4-yl)aminomethyl)-benzenesulfonamide]	< 0.1	< 0.1
NS(=O)(=O)c1ccc(CNc2nc(N3CCCCC3)nc3scc(-c4ccccc4)c23)cc1 [Example 1.39, 4-(((5-Phenyl-2-(piperidin-1-yl)thieno[2,3-d]pyrimidin-4-yl)amino)methyl)-benzenesulfonamide]	0.1 to 1	0.1 to 1
Cn1ncc2c(NCc3ccc(S(N)(=O)=O)cc3)cc(N3CCOCC3)nc21 [Example 2.82, 4-(((1-Methyl-6-morpholino-1H-pyrazolo[3,4-b]pyridin-4-yl)amino)methyl)-benzenesulfonamide]	1 to 20	1 to 20
Cn1ncc2c(NCc3ccc(S(N)(=O)=O)cc3)ccnc21 [Example 2.60, 4-(((1-Methyl-1H-pyrazolo[3,4-b]pyridin-4-yl)amino)methyl)benzenesulfonamide]	< 0.1	0.1 to 1
NS(=O)(=O)c1ccc(CNc2nc(NC3CC3)nc3scc(-c4ccccc4)c23)cc1 [Example 1.26, 4-(((2-(Cyclopropylamino)-5-phenylthieno[2,3-d]pyrimidin-4-yl)amino)methyl)-benzenesulfonamide]	< 0.1	< 0.1
Cn1ncc2c(NCc3ccc(S(N)(=O)=O)cc3)nc(NC3CCCCC3)nc21 [Example 2.30, 4-(((6-(Cyclohexylamino)-1-methyl-1H-pyrazolo[3,4-d]pyrimidin-4-yl)amino)methyl)-benzenesulfonamide]	1 to 20	1 to 20
Cn1nc(-c2ccccc2)c2c(NCc3ccc(S(N)(=O)=O)cc3)ncnc21 [Example 2.44, 4-(((1-Methyl-3-phenyl-1H-pyrazolo[3,4-d]pyrimidin-4-yl)amino)methyl)-benzenesulfonamide]	< 0.1	< 0.1
Fc1ccc(CCCNC2CCN(c3ncnc4c(-c5ccccc5)csc34)CC2)cc1 [Example 3.58, N-(3-(4-Fluorophenyl)propyl)-1-(7-phenylthieno[3,2-d]pyrimidin-4-yl)piperidin-4-amine]	1 to 20	> 20
CC(C)Nc1cc(NCc2ccc(S(N)(=O)=O)cc2)c2cnn(C)c2n1 [Example 2.74, 4-(((6-(Isopropylamino)-1-methyl-1H-pyrazolo[3,4-b]pyridin-4-yl)amino)methyl)benzenesulfonamide]	1 to 20	1 to 20
NS(=O)(=O)c1ccc(CNc2ncnc3scc(-c4ccccc4)c23)cc1 [Example 1.46, 4-(((5-Phenylthieno[2,3-d]pyrimidin-4-yl)amino)methyl)benzenesulfonamide]	< 0.1	< 0.1
Cc1nc(NCc2ccc(S(N)(=O)=O)cc2)c2cnn(C)c2n1 [Example 2.26, 4-(((1,6-Dimethyl-1H-pyrazolo[3,4-d]pyrimidin-4-yl)amino)methyl)benzenesulfonamide]	< 0.1	0.1 to 1
